Measured values reported in publication PMC8306139, “A Novel Dialkylamino-Functionalized Chalcone, DML6, Inhibits Cervical Cancer Cell Proliferation, In Vitro, via Induction of Oxidative Stress, Intrinsic Apoptosis and Mitotic Catastrophe” (Molecules, 2021).
Read-outs that look alike come from different tables or passages of the source.

How the values were obtained:
[1] = system: HEK293; test: MTT assay, HEK293; type: cell-based, human; conditions: read-out: IC50 ± SD Kidney HEK293
Description: (§1) The concentration of the tested compounds that produced a 50% inhibition of cell growth (IC50) was determined.
(§2) A panel of cancer cell lines, including cervical (OV2008 and HeLa), breast (MDA-MB-231), lung (A549) and colon (LOVO), prostate (DU145), human embryonic kidney cells (HEK293), human colon fibroblast cells (CRL1459), and Chinese hamster ovary cells (CHO), were grown as adherent monolayers in flasks containing Dulbecco’s modified Eagle medium (DMEM), supplemented with 10% fetal bovine serum (FBS) and 1% penicillin and streptomycin, in a humidified incubator with 5% CO2 at 37 °C.
(§3) The cells were seeded evenly (180 μL/well) in 96-well plates, at a density of 3000–5000 cells/well and incubated with serial dilutions of the compounds ranging from 0.1 to 100 μM. The MTT dye (4 mg/ml) was added after 72 h of incubation and incubated with the cells for an additional 4 h at 37 °C, allowing the viable cells to biotransform the yellow-colored MTT into dark-blue formazan crystals. Following incubation, the medium was aspirated, and the formazan crystals were dissolved by adding 100 μL of DMSO to each well. Cytation™ 5 and Cytation™ 7 multi-mode detector (Bio Tek Instruments, Winooski, VT, USA) was used to determine the absorbance readings at a wavelength of 570 nm. The IC50 values were determined based on 3 separate experiments, with each experiment carried out in triplicate.

[2] = system: A549; test: MTT assay, A549; type: cell-based; conditions: Homo sapiens, A549, 72 h, read-out: IC50 ± SD Lung A549
Description: as §1, §2, §3

[3] = system: DU145; test: MTT assay, DU145; type: cell-based; conditions: Homo sapiens, DU-145, 72 h, read-out: IC50 ± SD Prostate DU145
Description: as §1, §2, §3

[4] = system: HeLa; test: MTT assay, HeLa; type: cell-based; conditions: Homo sapiens, HeLa, 72 h, read-out: IC50 ± SD Cervical HeLa
Description: Table S1. The antiproliferative efficacy of the DML1-DML12 compounds on the proliferation of cervical cancer cell line.
Figure S1. The efficacy of DML6 in HeLa cancer cells. The cell-viability curve produced by HeLa cells treated with
vehicle (0 μM), 5 or 10 μM of DML6 after 72 h of incubation. Cell survival was determined using the MTT assay. The
IC50 values are represented as the means ± SD of three independent experiments performed in triplicate. […]

[5] = system: OV2008 cells; test: IncuCyte live-cell morphology study (confluence); type: cell-based; conditions: 72 hours, vehicle ≈70%
Description: Real-time live cell analysis was performed as previously described. In order to determine the morphological changes induced by DML6, OV2008 cells were seeded at 4000 cells/well in a 96-well plate and incubated overnight at 37 °C, with 5% CO2 in an incubator. […] IncuCyte was then programmed to capture the images at different time points (0, 24, 48 and 72 h), using the integrated IncuCyte S3 software version 2020B (Essen BioScience, Ann Arbor, MI, USA).

[6] = system: OV2008 cells; test: Nuclear staining with Hoechst dye; type: cell-based
Description: Nuclear fragmentation and chromatin condensation were detected using the Hoechst 33258 DNA dye as previously described. OV2008 cells were seeded at a density of 250,000 cells/mL in 6-well plates and incubated overnight at 37 °C. The next day, the cells were incubated with the vehicle (DMEM media with 10% FBS and 1% penicillin and streptomycin), 5 or 20 μM of DML6 and further incubated overnight at 37 °C. The cells were fixed and stained with the Hoechst 33258 DNA dye for at least 30 min. The stained nucleus fluorescence was detected using an EVOS digital microscope at wavelengths of 460–490 nm.

[7] = system: caspase-7; test: Western blot, cleaved caspase-7; type: cell-based; conditions: OV2008, 5 or 20 µM, vs vehicle
Description: The OV2008 cells were lysed to obtain total cellular protein fractions using Mammalian Protein Extraction Reagent (Catalog # 78501, M-PER™, Thermo Fisher Scientific, Waltham, MA, USA). The cells were seeded in […] at a density of 1 × 10^6 and incubated with 5 or 20 µM of DML6 or 1 µM of doxorubicin (Catalog # T1-2-, TargetMol, Boston, MA, USA) (a positive control) for 24 h. The following day, the cells were washed with ice-cold PBS, scraped using a cell scrapper and collected in Eppendorf tubes. The tubes were centrifuged at 1500 RPM at 4 °C for 5 min. The solution was discarded and replaced with 70 µL of the cell lysis buffer (M-PER reagent, 100 mM Sodium Orthovanadate (NaOV) at a final concentration of 2.5 mM) and a 100X protease inhibitor cocktail (Catalog # P8340, Sigma-Aldrich, St. Louis, MO, USA, final concentration of 1X, containing of aprotinin, bestatin, E-64, leupeptin and pepstatin). Thirty minutes later, the resulting solution was centrifuged at 10,000 RPM at 4 °C for 5 min and the supernatant was collected. The protein concentration of the cell extracts was determined using the bicinchoninic acid (BCA) (Catalog # 786-570, G-Biosciences, Saint Louis, MO, USA) quantification assay. […] Finally, the amount of protein in each blot was quantified using the Image J software (NIH, Bethesda, MD, USA). All data were calculated as a ratio to β-actin.

**Q.** Which IC50 ([1]; 72 h) does the source give for `CN(C)c1ccc(/C=C/C(=O)c2ccc(Cl)cc2Cl)cc1` [DML6, (E)-1-[2,4-dichlorophenyl]-3-(4-(dimethylamino)phenyl)prop-2-en-1-one] here?
**A.** Its IC50 is 70 ± 42.4 µM.

**Q.** And the IC50 ([1]; Homo sapiens, HEK293, 72 h)?
**A.** Its IC50 is over 65 µM.

**Q.** And the IC50 [2]?
**A.** Its IC50 is 84.9 ± 21.4 µM.

**Q.** And the IC50 [3]?
**A.** The IC50 was 96.9 ± 4.4 µM.

**Q.** What about the IC50 [4] of the same compound?
**A.** Its IC50 is 9.08 ± 0.69 µM.

**Q.** What about the “confluence of OV2008” value ([5]; 5 µM) of the same compound?
**A.** The value was “≈ 40%”.

**Q.** What about the “confluence of OV2008” value ([5]; 20 µM) of the same compound?
**A.** Its value is “≈ 10%”.

**Q.** What about the nuclear morphology ([6]; 5 μM, 24 h) of the same compound?
**A.** Its nuclear morphology is “increased the number of cells with condensed, fragmented nuclei”.

**Q.** What about the nuclear morphology ([6]; 20 µM) of the same compound?
**A.** The nuclear morphology was “decondensed, multiple micronuclei and some single, highly condensed nuclei”.

**Q.** What about the “percentage of apoptotic nuclei” value ([6]; 5 and 20 μM, vs vehicle) of the same compound?
**A.** Its value is “significantly higher”.

**Q.** And the “cleavage (activation) of caspase-7” value [7]?
**A.** The value was “significantly increased the cleavage”.
